Series [1] addresses Mitogen-activated protein kinase 10 (Homo sapiens, UniProt P53779). Put plainly: Inhibition of human JNK3 incubated for 40 mins in presence of ATP and [gamma33P-ATP] by scintillation counting method. To be noted: read-out: IC50.
Series [2] concerns the target Mitogen-activated protein kinase 9 (Homo sapiens, UniProt P45984). The series is described as follows: Inhibition of human JNK2 incubated for 40 mins in presence of ATP and [gamma33P-ATP] by scintillation counting method.
The target in series [3] is Mitogen-activated protein kinase 8 (Homo sapiens, UniProt P45983). Put plainly: Inhibition of human JNK1 incubated for 40 mins in presence of ATP and [gamma33P-ATP] by scintillation counting method.
In series [4] the test system is Mus musculus. Put plainly: Anti-alzheimer activity against APP/PS1 dE9 double transgenic mouse model assessed as time spent in platform quadrant at 30 mg/kg, po administered 3 times/week for 1 month and measured after 40 to 45 days of treatment by Morris water maze test (reference value: 15.94 +/- 2.08 sec). In kind it is functional. The note with it: time 1 months, 730 h.

Series [5] has as its system Mus musculus. Put plainly: Anti-alzheimer activity against APP/PS1 dE9 double transgenic mouse model assessed as spontaneous alteration at 10 mg/kg, po administered 3 times/week for 1 month and measured after 27 days of treatment by Y-maze test (reference value: 45.51 +/- 2.92%). The note with it: time 1 months, 730 h. In kind it is functional.
Series [6] is described as follows: Oral bioavailability in Sprague-Dawley rat at 3 mg/kg measured upto 24 hrs by UPLC analysis. It counts as ADME, organism-based. To be noted: in vivo.
For series [7], the system named is Mus musculus. The series is described as follows: Anti-alzheimer activity against APP/PS1 dE9 double transgenic mouse model assessed as escape latency time at 30 mg/kg, po administered 3 times/week for 1 month and measured after 27 days of treatment by Passive avoidance test (reference value: 24.8 +/- 4.1 sec). In kind it is functional. The note with it: time 1 months, 730 h.

Series [8] concerns Mus musculus. The series is described as follows: Anti-alzheimer activity against homozygous 3 x Tg mouse model assessed as escape latency time at 30 mg/kg, po administered daily for 2.2 months and measured after 60 days of treatment by Passive avoidance test (reference value: 40.6 +/- 6 sec). It counts as functional. The note with it: 1606 h.
A short description of series [9]: Half life in Sprague-Dawley rat at 1 mg/kg, iv measured upto 24 hrs by UPLC analysis. It counts as ADME, organism-based. The note with it: in vivo.
Series [10] relates to Mus musculus. The series is described as follows: Anti-alzheimer activity against APP/PS1 dE9 double transgenic mouse model assessed as spontaneous alteration at 30 mg/kg, po administered 3 times/week for 1 month and measured after 27 days of treatment by Y-maze test (reference value: 45.51 +/- 2.92%). To be noted: time 1 months, 730 h. In kind it is functional.
Series [11] is described as follows: Drug uptake in Sprague-Dawley rat brain at 30 mg/kg, po measured at Tmax. It counts as ADME, organism-based. To be noted: in vivo.
The nature of series [12]: Efflux ratio of apparent permeability basolateral to apical side over apical to basolateral side in human Caco-2 cells at 10 uM incubated for 1 hr by LC-MS/MS analysis. In kind it is ADME, cell-based. A general note: Passage across Caco-2 layers is used to estimate intestinal permeability.
Series [13] is described as follows: Apparent permeability across basolateral to apical side in human Caco-2 cells at 10 uM incubated for 1 hr by LC-MS/MS analysis. It counts as ADME, cell-based.
Series [14] is described as follows: Half life in Sprague-Dawley rat at 3 mg/kg, po measured upto 24 hrs by UPLC analysis. The note with it: in vivo. In kind it is ADME, organism-based.
In series [15] the test system is Mus musculus. Put plainly: Anti-alzheimer activity against APP/PS1 dE9 double transgenic mouse model assessed as time spent in platform quadrant at 10 mg/kg, po administered 3 times/week for 1 month and measured after 40 to 45 days of treatment by Morris water maze test (reference value: 15.94 +/- 2.08 sec). It counts as functional. To be noted: time 1 months, 730 h.

The subject of series [16] is Mus musculus. The series is described as follows: Anti-alzheimer activity against homozygous 3 x Tg mouse model assessed as time spent in platform quadrant at 60 mg/kg, po administered daily for 2.2 months and measured after 68 to 73 days of treatment by Morris water maze test (reference value: 14.26 +/- 1.62 sec). It counts as functional. The note with it: 1606 h.

Series [17] concerns Cortical neurone. The series is described as follows: Neuroprotective activity against Amyloid beta (1 to 42)-induced toxicity in rat cortical neuron assessed as cell viability at 20 uM measured after 48 hrs by MTT assay. To be noted: read-out: Activity. In kind it is functional. In general terms: Tetrazolium assays rely on reduction of a dye to a coloured formazan, in cell work by metabolically active cells.

A short description of series [18]: Toxicity in APP/PS1 mouse assessed as abnormal symptoms at 60 mg/kg, po treated for 2 months. In kind it is organism-based. The note with it: in vivo, 1460 h.
Series [19] is described as follows: Toxicity in APP/PS1 mouse assessed as weight change at 30 mg/kg, po treated for 2 months. It counts as organism-based. The note with it: in vivo, 1460 h.
In series [20] the test system is Cortical neurone. Put plainly: Neuroprotective activity against Amyloid beta (1 to 42)-induced toxicity in rat cortical neuron assessed as cell viability at 20 uM measured after 24 hrs by MTT assay. It counts as functional. To be noted: read-out: Activity.
Series [21] can be described thus: Cmax in Sprague-Dawley rat at 3 mg/kg, po measured upto 24 hrs by UPLC analysis. Details: dose 3 mg/kg, time < 24 hrs, route po. To be noted: in vivo. In kind it is ADME, organism-based.
The nature of series [22]: Brain to Plasma ratio in Sprague-Dawley rat at 30 mg/kg, po measured at Tmax. It counts as ADME, organism-based. To be noted: read-out: BPR.
A short description of series [23]: Toxicity in homozygous 3 x Tg mouse model assessed as visual inspection at 60 mg/kg, po daily for 2.2 months. It counts as organism-based. The note with it: in vivo, 1606 h.
The test system of series [24] is Mus musculus. The series is described as follows: Anti-alzheimer activity against homozygous 3 x Tg mouse model assessed as spontaneous alteration at 60 mg/kg, po administered daily for 2.2 months and measured after 57 days of treatment by Y-maze test (reference value: 45.05 +/- 3.61%). In kind it is functional. To be noted: 1606 h.
A short description of series [25]: AUC in Sprague-Dawley rat at 1 mg/kg, iv measured upto 24 hrs by UPLC analysis. In kind it is ADME, organism-based. Details: dose 1 mg/kg, time < 24 hrs, route iv. To be noted: in vivo.
The nature of series [26]: Toxicity in APP/PS1 mouse assessed as weight change at 60 mg/kg, po treated for 2 months. It counts as organism-based. To be noted: in vivo, 1460 h.
The nature of series [27]: Permeability of the compound by PAMPA-BBB assay. In kind it is ADME. To be noted: read-out: permeability. (In general: PAMPA measures passive passage across an artificial lipid membrane.)
A short description of series [28]: Apparent permeability across apical to basolateral side in human Caco-2 cells at 10 uM incubated for 1 hr by LC-MS/MS analysis. It counts as ADME, cell-based.
For series [29], the system named is Mus musculus. The series is described as follows: Anti-alzheimer activity against APP/PS1 dE9 double transgenic mouse model assessed as escape latency time at 10 mg/kg, po administered 3 times/week for 1 month and measured after 27 days of treatment by Passive avoidance test (reference value: 24.8 +/- 4.1 sec). In kind it is functional. To be noted: time 1 months, 730 h.

A short description of series [30]: Plasma concentration in Sprague-Dawley rat at 30 mg/kg, po measured at Tmax. It counts as ADME, organism-based.
A short description of series [31]: Tmax in Sprague-Dawley rat at 3 mg/kg, po measured upto 24 hrs by UPLC analysis. In kind it is ADME, organism-based. To be noted: in vivo.
Series [32] is described as follows: Toxicity in APP/PS1 mouse assessed as abnormal symptoms at 30 mg/kg, po treated for 2 months. The note with it: in vivo, 1460 h. It counts as organism-based.
Series [33] deals with Cortical neurone. The series is described as follows: Neuroprotective activity against Amyloid beta (1 to 42)-induced toxicity in rat cortical neuron assessed as cell viability measured after 24 to 48 hrs by MTT assay. It counts as functional, cell-based. To be noted: time 24-48 hrs.

19 molecules from ChEMBL document CHEMBL5385844, “Discovery of novel imidazole chemotypes as isoform-selective JNK3 inhibitors for the treatment of Alzheimer's disease” (Eur J Med Chem, 2023) can be followed below.

pIC50: −log10 of the molar value. The source made the active and inactive calls. The calls are words filed in the database; no cut-off is given here. Some results are limits rather than exact numbers.

Sequence of Mitogen-activated protein kinase 10 (P53779 whole entry): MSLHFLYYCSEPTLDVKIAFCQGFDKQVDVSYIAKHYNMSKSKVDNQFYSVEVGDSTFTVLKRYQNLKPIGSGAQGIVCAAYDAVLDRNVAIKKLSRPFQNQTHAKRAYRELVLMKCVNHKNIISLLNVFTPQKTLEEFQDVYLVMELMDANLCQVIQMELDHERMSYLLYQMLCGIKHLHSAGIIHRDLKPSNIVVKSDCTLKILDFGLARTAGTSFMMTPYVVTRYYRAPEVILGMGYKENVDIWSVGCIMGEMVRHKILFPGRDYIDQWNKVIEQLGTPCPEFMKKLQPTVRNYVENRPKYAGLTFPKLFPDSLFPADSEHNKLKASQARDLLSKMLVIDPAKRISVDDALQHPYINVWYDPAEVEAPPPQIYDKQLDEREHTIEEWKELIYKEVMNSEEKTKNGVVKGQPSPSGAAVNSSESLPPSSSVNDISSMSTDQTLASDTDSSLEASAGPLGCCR
Sequence of Mitogen-activated protein kinase 9 (P45984 whole entry): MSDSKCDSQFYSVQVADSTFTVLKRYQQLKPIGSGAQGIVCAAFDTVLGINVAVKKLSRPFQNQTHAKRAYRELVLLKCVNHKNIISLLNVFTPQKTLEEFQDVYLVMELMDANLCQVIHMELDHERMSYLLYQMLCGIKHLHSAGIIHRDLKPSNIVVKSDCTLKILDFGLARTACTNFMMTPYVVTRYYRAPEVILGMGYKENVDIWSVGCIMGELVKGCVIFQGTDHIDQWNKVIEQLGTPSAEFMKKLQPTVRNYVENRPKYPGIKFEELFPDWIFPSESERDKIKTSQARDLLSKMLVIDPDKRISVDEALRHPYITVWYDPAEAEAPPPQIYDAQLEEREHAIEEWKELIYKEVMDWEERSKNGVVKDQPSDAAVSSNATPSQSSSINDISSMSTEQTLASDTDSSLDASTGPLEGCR
Sequence of Mitogen-activated protein kinase 8 (P45983 whole entry): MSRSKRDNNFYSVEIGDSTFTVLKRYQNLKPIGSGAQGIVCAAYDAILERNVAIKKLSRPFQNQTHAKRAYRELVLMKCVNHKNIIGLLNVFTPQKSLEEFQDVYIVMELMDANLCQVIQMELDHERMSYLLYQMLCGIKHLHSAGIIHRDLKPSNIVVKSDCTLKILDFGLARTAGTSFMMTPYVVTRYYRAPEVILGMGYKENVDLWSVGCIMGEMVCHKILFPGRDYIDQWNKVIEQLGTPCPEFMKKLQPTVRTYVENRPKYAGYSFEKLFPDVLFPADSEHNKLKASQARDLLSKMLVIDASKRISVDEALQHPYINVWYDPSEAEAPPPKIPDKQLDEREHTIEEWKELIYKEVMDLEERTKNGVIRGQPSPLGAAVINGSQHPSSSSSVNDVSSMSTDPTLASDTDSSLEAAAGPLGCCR

`N#CCc1cnc(C2=CC3OCOC3C=C2)n1-c1ccnc(N[C@H]2CCCN(C(=O)C3CC3)C2)n1` (stereo partly drawn): in series [1], the pIC50 (in general, −log10 of the IC50, conventionally taken in molar units) was 7.26.
On the same count and under the same terms, the value for `N#CCc1cnc(-c2ccc3ccccc3c2)n1-c1ccnc(NC2CCOCC2)n1` was 6.49; that for `N#CCc1cnc(-c2ccc(Cl)c(Cl)c2)n1-c1ccnc(NC2CCCCC2)n1` was 6.21.
`N#CCc1cnc(-c2ccc(Cl)c(Cl)c2)n1-c1ccnc(N[C@H]2CCCN(C(=O)NC3CC3)C2)n1`: the pIC50 is 7.25 in series [2], 8.28 in series [1] and 6.29 in series [3].
`N#CCc1cnc(-c2ccc3c(c2)CCO3)n1-c1ccnc(N[C@H]2CCCN(C(=O)C3CC3)C2)n1`: the Time with Mus musculus [4] is 22.5 s; in the series with Mus musculus [7], 40.1 s; in the series on Mus musculus [8], 71.1 s; in the series on Mus musculus [15] it was 21.55 s; in the series on Mus musculus [16], 21.91 s; with Mus musculus [29], 34.7 s. Also, the Activity in the series with Mus musculus [5] is given as 53.15%; with Mus musculus [10] it was 54.99%; in series [18], “Non-Toxic”; in series [19], “Non-Toxic”; in series [23] it was “Non-Toxic”; in the series on Mus musculus [24], 57.14%. Moreover, the Activity result in [26] and in series [32] was “Non-Toxic” in each case. Also, the bioavailability (as a rule, dose-corrected exposure relative to a reference, in per cent) in series [6] amounted to 86.2%. The figures for the half-life in series [9] and in [14] were 21.6 min and 68.4 min, respectively. The pIC50 in [2] is 7.36; in [1] it was 8.39; in [3], 6.83. In series [11], this molecule displayed a Drug uptake of 357 ng/g. Moreover, the efflux ratio (in general, the permeability from basolateral to apical divided by that in the opposite direction, in the common usage) at 1 h, 10 µM in series [12] was determined as 2.86. In addition, the Papp B→A (in general, the apparent permeability from the basolateral to the apical side of a cell layer) at 1 h, 10 µM in series [13] was 31.3 ×10⁻⁶ cm/s. Further, the viability at 20 µM with Cortical neurone [17] came to 46.3%; in the series with Cortical neurone [20], 73.3%. Besides, the figures for the Cmax in [21] and in series [30] were 1240 ng/mL and 5910 ng/mL, respectively. Further, in [22], the Kp turned out to be 0.06. For the same molecule, the AUC – broadly, concentration integrated over time – at 24 h in [25] is 1090 ng·h/mL. For the same molecule, in [27], the Papp was found to be 8.91 ×10⁻⁶ cm/s. For the same molecule, in series [28], the Papp A→B – broadly, the apparent permeability from the apical to the basolateral side of a cell layer – at 1 h, 10 µM came to 11 ×10⁻⁶ cm/s. The Tmax (in general, the time at which the peak concentration occurs) in series [31] is 40.2 min.
As to `N#CCc1cnc(-c2ccc3c(c2)OCO3)n1-c1ccnc(NC2CCCCC2)n1`, the pIC50 in series [1] is 6.09.
Still for that read-out and setting: the value for `C[C@@H](O)CNc1nccc(-n2c(CC#N)cnc2-c2ccc(F)c(C(F)(F)F)c2)n1` was less than 5.00; that for `N#CCc1cnc(-c2ccc3ccccc3n2)n1-c1ccnc(NC2CCCCC2)n1` was less than 5.00.
Still for that read-out and setting: in the case of `N#CCc1cnc(-c2ccc3ccccc3n2)n1-c1ccnc(N[C@H]2CCCNC2)n1` it was less than 5.00; in that of `N#CCc1cnc(-c2ccc(Cl)c(Cl)c2)n1-c1ccnc(N[C@H]2CCCNC2)n1`, 4.88.
`N#CCc1cnc(C2=CC3OCOC3C=C2)n1-c1ccnc(N[C@H]2CCCNC2)n1` (stereo partly drawn): the pIC50 in series [1] is less than 5.00.
Turning to `Cc1ccc(-c2ncn(-c3ccc(Nc4nccc(-c5cccc(N6CCOCC6)c5)n4)cc3)n2)cn1`, in the series on Cortical neurone [33], the result was inactive.
Regarding `N#CCc1cnc(C2=CC3OCCOC3C=C2)n1-c1ccnc(N[C@H]2CCCN(C(=O)C3CC3)C2)n1` (stereo partly drawn), in [1], the pIC50 is 5.82.
Consider `N#CCc1cnc(-c2ccc(Cl)c(Cl)c2)n1-c1ccnc(NC(=O)NC2CCCN(C(=O)C3CC3)C2)n1` (stereo not drawn), for which the pIC50 in series [2], in series [1] and in series [3] was less than 5.00 each time.
With `N#CCc1cnc(-c2ccc3ccccc3n2)n1-c1ccnc(N[C@H]2CCCN(C(=O)C3CC3)C2)n1`, in series [1], the pIC50 is 6.40.
Turning to `N#CCc1cnc(-c2ccc3occc3c2)n1-c1ccnc(N[C@H]2CCCN(C(=O)C3CC3)C2)n1`, the pIC50 in [2] was 6.57; in series [1] it was 8.21; in [3] it was 6.45.
Take `N#CCc1cnc(-c2ccc3c(c2)OCCO3)n1-c1ccnc(NC2CCCCC2)n1`: the pIC50 in series [1] was 5.20.
Same read-out and setting: the value for `C[C@@H](O)CNc1nccc(-n2c(CC#N)cnc2-c2ccc3c(c2)OCO3)n1` was less than 5.00.
As to `N#CCc1cnc(-c2ccc3ccccc3c2)n1-c1ccnc(N[C@H]2CCCCN(C(=O)C3CC3)C2)n1`, the pIC50 was 6.62 in [2], 7.62 in [1] and 6.02 in [3].
